Data as given in patent US8697632B2 (priority 2008, dated 2014).
“And” between values parts separate entries of the source, which are not always exact repeats. Equal entries are not always repeated. Peptide text beside a SMILES is read from it.

Columns and labels:
[1] = cited from earlier work
[2] = Rate of model dipeptide cleavage in PBS (model hexapeptide); conditions: Table 2, dipeptide on side chain of N-terminal para-amino-Phe of HSRGTF-NH2
Description: The rate of cleavage was determined for the respective propeptides. The concentrations of the propeptides and the model parent peptide were determined by their respective peak areas. […] The slope of this plot provides the rate constant ‘k’.

insulin receptor = target: T1, insulin receptor (Homo sapiens, UniProt P06213); assay: Insulin receptor competition binding assay (scintillation proximity); conditions: Table 9; for Ratio: IGF-1 receptor vs insulin receptor binding
T1 construct: expressed in transfected cells; plasma membrane fragments

[3] = Dipeptide cleavage from prodrug forms of IGF1 peptides in PBS; format: physicochemical; conditions: pH 7.4 at 37° C.
Description: The rate of cleavage was determined for the respective propeptides. The concentrations of the propeptides and the model parent peptide were determined by their respective peak areas. The first order dissociation rate constants of the prodrugs were determined by plotting the logarithm of the concentration of the prodrug at various time intervals. The slope of this plot provides the rate constant ‘k’.
The IGF^B16B17 derivative peptide prodrugs were incubated in PBS, pH 7.4 at 37° C. and at predetermined time intervals an aliquot was taken and further degredation was quenched with 0.1% TFA and the aliquot was subjected to analytical HPLC analysis.

IGF-1 receptor = target: T2, IGF-1 receptor (Homo sapiens, UniProt P08069); assay: IGF-1 receptor competition binding assay (scintillation proximity); conditions: Table 9
T2 construct: expressed in transfected cells; plasma membrane fragments

[4] = cited from earlier work; remark: listed apart in the source
[5] = in vivo; cited from earlier work

T1 sequence (P06213 28-758 limits assumed): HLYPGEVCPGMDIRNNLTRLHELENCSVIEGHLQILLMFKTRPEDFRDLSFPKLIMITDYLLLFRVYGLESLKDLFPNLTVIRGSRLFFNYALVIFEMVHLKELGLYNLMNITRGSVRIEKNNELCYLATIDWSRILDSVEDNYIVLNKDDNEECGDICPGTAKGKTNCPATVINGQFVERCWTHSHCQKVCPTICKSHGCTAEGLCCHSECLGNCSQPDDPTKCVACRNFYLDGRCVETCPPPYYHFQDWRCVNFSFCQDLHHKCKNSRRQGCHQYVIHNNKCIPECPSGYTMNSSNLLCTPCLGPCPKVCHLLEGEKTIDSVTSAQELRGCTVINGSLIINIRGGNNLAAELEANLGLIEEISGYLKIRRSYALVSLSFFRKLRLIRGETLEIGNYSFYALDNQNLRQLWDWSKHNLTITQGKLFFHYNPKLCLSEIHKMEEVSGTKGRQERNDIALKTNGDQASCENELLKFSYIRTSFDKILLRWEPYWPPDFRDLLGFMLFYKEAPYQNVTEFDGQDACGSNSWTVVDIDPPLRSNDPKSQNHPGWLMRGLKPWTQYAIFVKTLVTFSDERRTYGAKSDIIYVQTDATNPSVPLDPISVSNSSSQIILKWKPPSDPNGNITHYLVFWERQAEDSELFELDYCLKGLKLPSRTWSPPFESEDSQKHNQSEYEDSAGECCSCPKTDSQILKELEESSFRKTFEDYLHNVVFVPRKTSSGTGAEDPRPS
T1 sequence (P06213 763-1382 limits assumed): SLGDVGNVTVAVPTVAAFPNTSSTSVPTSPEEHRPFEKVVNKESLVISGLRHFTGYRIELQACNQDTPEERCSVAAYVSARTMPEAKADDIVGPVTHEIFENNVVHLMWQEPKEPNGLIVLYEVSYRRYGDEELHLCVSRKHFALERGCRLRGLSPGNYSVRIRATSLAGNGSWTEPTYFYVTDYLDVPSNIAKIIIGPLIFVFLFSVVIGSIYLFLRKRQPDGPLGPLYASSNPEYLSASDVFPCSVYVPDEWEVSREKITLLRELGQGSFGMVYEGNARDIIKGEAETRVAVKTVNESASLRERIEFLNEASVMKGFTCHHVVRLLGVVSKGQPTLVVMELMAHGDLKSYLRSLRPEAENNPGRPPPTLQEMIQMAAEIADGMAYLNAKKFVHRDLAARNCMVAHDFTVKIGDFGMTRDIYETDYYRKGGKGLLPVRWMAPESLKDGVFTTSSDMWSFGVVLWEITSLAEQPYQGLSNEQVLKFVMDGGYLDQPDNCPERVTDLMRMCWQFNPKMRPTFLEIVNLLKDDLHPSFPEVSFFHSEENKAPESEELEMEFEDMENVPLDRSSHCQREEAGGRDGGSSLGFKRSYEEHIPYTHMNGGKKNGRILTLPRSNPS
T2 sequence (P08069 31-736 limits assumed): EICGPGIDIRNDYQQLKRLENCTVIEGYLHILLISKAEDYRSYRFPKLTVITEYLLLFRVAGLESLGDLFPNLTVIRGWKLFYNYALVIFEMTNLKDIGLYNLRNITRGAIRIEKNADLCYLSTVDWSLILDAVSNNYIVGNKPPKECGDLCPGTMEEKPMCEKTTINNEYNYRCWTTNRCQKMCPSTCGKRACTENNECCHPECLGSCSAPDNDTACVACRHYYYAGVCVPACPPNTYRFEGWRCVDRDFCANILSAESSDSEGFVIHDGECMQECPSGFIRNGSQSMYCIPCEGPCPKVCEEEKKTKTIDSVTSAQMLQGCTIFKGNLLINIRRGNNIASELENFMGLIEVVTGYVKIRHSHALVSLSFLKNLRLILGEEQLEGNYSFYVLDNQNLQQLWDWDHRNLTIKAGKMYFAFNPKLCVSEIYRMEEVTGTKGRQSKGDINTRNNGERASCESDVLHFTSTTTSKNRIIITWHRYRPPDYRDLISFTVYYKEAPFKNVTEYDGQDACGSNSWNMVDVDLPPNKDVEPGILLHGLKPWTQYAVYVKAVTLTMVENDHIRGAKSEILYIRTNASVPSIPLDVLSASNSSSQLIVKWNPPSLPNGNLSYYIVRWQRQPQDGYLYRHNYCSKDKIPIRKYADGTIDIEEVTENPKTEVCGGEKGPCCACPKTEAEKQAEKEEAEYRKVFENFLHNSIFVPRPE
T2 sequence (P08069 741-1367 limits assumed): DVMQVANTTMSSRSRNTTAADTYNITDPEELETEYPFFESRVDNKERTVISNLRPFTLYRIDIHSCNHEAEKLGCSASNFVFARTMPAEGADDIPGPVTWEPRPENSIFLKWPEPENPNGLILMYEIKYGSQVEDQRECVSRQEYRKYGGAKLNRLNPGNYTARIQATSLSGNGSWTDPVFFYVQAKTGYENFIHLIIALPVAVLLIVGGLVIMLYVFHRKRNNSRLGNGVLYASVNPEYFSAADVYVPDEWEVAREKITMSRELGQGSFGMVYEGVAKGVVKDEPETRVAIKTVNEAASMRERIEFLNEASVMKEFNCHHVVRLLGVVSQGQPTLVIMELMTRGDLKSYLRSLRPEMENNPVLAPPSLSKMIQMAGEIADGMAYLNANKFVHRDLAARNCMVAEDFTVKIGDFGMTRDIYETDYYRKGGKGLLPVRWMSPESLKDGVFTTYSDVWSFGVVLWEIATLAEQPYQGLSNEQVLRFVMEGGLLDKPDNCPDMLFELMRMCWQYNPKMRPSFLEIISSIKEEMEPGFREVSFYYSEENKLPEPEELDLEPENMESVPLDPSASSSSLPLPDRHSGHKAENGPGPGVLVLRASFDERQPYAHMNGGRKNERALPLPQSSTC

[GlyA21, ArgB31, ArgB32]insulin
IGF-1 affinity (in words) [1]: enhanced IGF-1 affinity

C[C@@H](O)[C@H](NC(=O)CNC(=O)[C@H](CCCNC(=N)N)NC(=O)[C@H](CO)NC(=O)[C@H](Cc1c[nH]cn1)NC(=O)[C@@H](N)Cc1ccc(NC(=O)CNC(=O)CN)cc1)C(=O)N[C@@H](Cc1ccccc1)C(N)=O [Compound 18]
t1/2 (result in words) [2]: No cleavage

C[C@@H](O)[C@H](NC(=O)CNC(=O)[C@H](CCCNC(=N)N)NC(=O)[C@H](CO)NC(=O)[C@H](Cc1c[nH]cn1)NC(=O)[C@@H](N)Cc1ccc(NC(=O)CNC(=O)CO)cc1)C(=O)N[C@@H](Cc1ccccc1)C(N)=O [Compound 19]
t1/2 (result in words) [2]: No cleavage

CC[C@H](C)[C@H](NC(=O)CN)C(=O)N[C@H](C(=O)N[C@@H](CC(=O)O)C(=O)N[C@@H](CCC(=O)O)C(=O)N[C@H]1CSSC[C@@H]2NC(=O)[C@H](CO)NC(=O)[C@H](CCCNC(=N)N)NC(=O)[C@H](Cc3ccccc3)NC(=O)[C@H](CSSC[C@H](NC(=O)[C@H](CC(C)C)NC(=O)[C@H](Cc3c[nH]cn3)NC(=O)[C@H](CCC(=O)O)NC(=O)[C@@H]3CCCN3C(=O)CN)C(=O)NCC(=O)N[C@@H](C)C(=O)N[C@@H](CC(=O)O)C(=O)N[C@@H](CC(C)C)C(=O)N[C@@H](C(C)C)C(=O)N[C@@H](CC(=O)O)C(=O)N[C@@H](C)C(=O)N[C@@H](CC(C)C)C(=O)N[C@@H](Cc3ccc(O)cc3)C(=O)N[C@@H](CC(C)C)C(=O)N[C@@H](C(C)C)C(=O)N[C@H](C(=O)NCC(=O)N[C@@H](CC(=O)O)C(=O)N[C@@H](CCCNC(=N)N)C(=O)NCC(=O)N[C@@H](Cc3ccccc3)C(=O)N[C@@H](Cc3ccc(O)cc3)C(N)=O)CSSC[C@@H](C(=O)N[C@@H](C)C(N)=O)NC(=O)[C@H](Cc3ccc(O)cc3)NC(=O)[C@H](CC[S+](C)[O-])NC(=O)[C@H](CCC(=O)O)NC(=O)[C@H](CC(C)C)NC(=O)[C@H](CCCNC(=N)N)NC(=O)[C@H](CCCNC(=N)N)NC(=O)[C@H](CC(C)C)NC(=O)[C@H](CC(=O)O)NC2=O)NC1=O)C(C)C (stereo partly shown) [IGF-1 A:B (H5D10Y16L17) (S═O)DPI]
IC50 (insulin receptor; read-out: Insulin Receptor nM IC50:): 0.25 nM

CC[C@H](C)[C@H](NC(=O)CN)C(=O)N[C@H](C(=O)N[C@@H](CC(=O)O)C(=O)N[C@@H](CCC(=O)O)C(=O)N[C@H]1CSSC[C@@H]2NC(=O)[C@H](CO)NC(=O)[C@H](CCCNC(=N)N)NC(=O)[C@H](Cc3ccccc3)NC(=O)[C@H](CSSC[C@H](NC(=O)[C@H](CC(C)C)NC(=O)[C@@H](NC(=O)[C@H](CCC(=O)O)NC(=O)[C@@H]3CCCN3C(=O)CN)[C@@H](C)O)C(=O)NCC(=O)N[C@@H](CO)C(=O)N[C@@H](Cc3c[nH]cn3)C(=O)N[C@@H](CC(C)C)C(=O)N[C@@H](C(C)C)C(=O)N[C@@H](CCC(=O)O)C(=O)N[C@@H](C)C(=O)N[C@@H](CC(C)C)C(=O)N[C@@H](Cc3ccc(O)cc3)C(=O)N[C@@H](CC(C)C)C(=O)N[C@@H](C(C)C)C(=O)N[C@H](C(=O)NCC(=O)N[C@@H](CC(=O)O)C(=O)N[C@@H](CCCNC(=N)N)C(=O)NCC(=O)N[C@@H](Cc3ccccc3)C(=O)N[C@@H](Cc3ccc(O)cc3)C(=O)N[C@@H](Cc3ccccc3)C(=O)N[C@@H](CC(N)=O)C(=O)N[C@@H](CCCCN)C(=O)N3CCC[C@H]3C(=O)N[C@H](C(N)=O)[C@@H](C)O)CSSC[C@@H](C(=O)N[C@@H](C)C(N)=O)NC(=O)[C@H](Cc3ccc(O)cc3)NC(=O)[C@H](CCSC)NC(=O)[C@H](CCC(=O)O)NC(=O)[C@H](CC(C)C)NC(=O)[C@H](CCCNC(=N)N)NC(=O)[C@H](CCCNC(=N)N)NC(=O)[C@H](CC(C)C)NC(=O)[C@H](CC(=O)O)NC2=O)NC1=O)C(C)C
Ratio (insulin receptor): 82.6

CC[C@H](C)[C@H](NC(=O)CN)C(=O)N[C@H](C(=O)N[C@@H](CC(=O)O)C(=O)N[C@@H](CCC(=O)O)C(=O)N[C@@H](C)C(=O)N[C@@H](C)C(=O)N[C@@H](Cc1ccccc1)C(=O)N[C@@H](CCCNC(=N)N)C(=O)N[C@@H](CO)C(=O)N[C@@H](C)C(=O)N[C@@H](CC(=O)O)C(=O)N[C@@H](CC(C)C)C(=O)N[C@@H](CCCNC(=N)N)C(=O)N[C@@H](CCCNC(=N)N)C(=O)N[C@@H](CC(C)C)C(=O)N[C@@H](CCC(=O)O)C(=O)N[C@@H](CCSC)C(=O)N[C@@H](Cc1ccc(NC(=O)[C@@H]2CCCN2C(=O)C(C)(C)N)cc1)C(=O)N[C@@H](C)C(=O)N[C@@H](C)C(N)=O)C(C)C [AiB Pro] (HELM PEPTIDE1{G.I.V.D.E.A.A.F.R.S.A.D.L.R.R.L.E.M.[O=C([C@H](Cc1ccc(N[*:3])cc1)N[*:1])[*:2]].A.A.[am]}|PEPTIDE2{[Aib].P}$PEPTIDE1,PEPTIDE2,19:R3-2:R2$$$V2.0)
dipeptide cleavage / conversion to active form (in words) [3]: spontaneous, non-enzymatic conversion

CC[C@H](C)[C@H](NC(=O)CN)C(=O)N[C@H](C(=O)N[C@@H](CC(=O)O)C(=O)N[C@@H](CCC(=O)O)C(=O)N[C@H]1CSSC[C@@H]2NC(=O)[C@H](CO)NC(=O)[C@H](CCCNC(=N)N)NC(=O)[C@H](Cc3ccccc3)NC(=O)[C@H](CSSC[C@H](NC(=O)[C@H](CC(C)C)NC(=O)[C@@H](NC(=O)[C@H](CCC(=O)O)NC(=O)[C@@H]3CCCN3C(=O)CN)[C@@H](C)O)C(=O)NCC(=O)N[C@@H](C)C(=O)N[C@@H](CCC(=O)O)C(=O)N[C@@H](CC(C)C)C(=O)N[C@@H](C(C)C)C(=O)N[C@@H](CC(=O)O)C(=O)N[C@@H](C)C(=O)N[C@@H](CC(C)C)C(=O)N[C@@H](Cc3ccc(O)cc3)C(=O)N[C@@H](CC(C)C)C(=O)N[C@@H](C(C)C)C(=O)N[C@H](C(=O)NCC(=O)N[C@@H](CC(=O)O)C(=O)N[C@@H](CCCNC(=N)N)C(=O)NCC(=O)N[C@@H](Cc3ccccc3)C(=O)N[C@@H](Cc3ccc(O)cc3)C(=O)N[C@@H](Cc3ccccc3)C(=O)N[C@@H](CC(N)=O)C(=O)N[C@@H](CCCCN)C(=O)N3CCC[C@H]3C(=O)N[C@H](C(N)=O)[C@@H](C)O)CSSC[C@@H](C(=O)N[C@@H](C)C(N)=O)NC(=O)[C@H](Cc3ccc(O)cc3)NC(=O)[C@H](CCSC)NC(=O)[C@H](CCC(=O)O)NC(=O)[C@H](CC(C)C)NC(=O)[C@H](CCCNC(=N)N)NC(=O)[C@H](CCCNC(=N)N)NC(=O)[C@H](CC(C)C)NC(=O)[C@H](CC(=O)O)NC2=O)NC1=O)C(C)C [IGF-1 A:B(E10Y16L17)]
IC50 (IGF-1 receptor; IGF-1 Receptor IC50:): 12.2 nM

[LysB29-tetradecanoyl, des(B30)]insulin
potency in vivo (in words) [4]: reduced potency in vivo | plasma half life (in words) [5]: increased plasma half life

CC[C@H](C)[C@H](NC(=O)CN)C(=O)N[C@H](C(=O)N[C@@H](CC(=O)O)C(=O)N[C@@H](CCC(=O)O)C(=O)N[C@H]1CSSC[C@@H]2NC(=O)[C@H](CO)NC(=O)[C@H](CCCNC(=N)N)NC(=O)[C@H](Cc3ccccc3)NC(=O)[C@H](CSSC[C@H](NC(=O)[C@H](CC(C)C)NC(=O)[C@H](Cc3c[nH]cn3)NC(=O)[C@H](CCC(N)=O)NC(=O)[C@H](CC(N)=O)NC(=O)[C@@H](NC(=O)[C@@H](N)Cc3ccccc3)C(C)C)C(=O)NCC(=O)N[C@@H](CO)C(=O)N[C@@H](Cc3c[nH]cn3)C(=O)N[C@@H](CC(C)C)C(=O)N[C@@H](C(C)C)C(=O)N[C@@H](CCC(=O)O)C(=O)N[C@@H](C)C(=O)N[C@@H](CC(C)C)C(=O)N[C@@H](Cc3ccc(O)cc3)C(=O)N[C@@H](CC(C)C)C(=O)N[C@@H](C(C)C)C(=O)N[C@H](C(=O)NCC(=O)N[C@@H](CC(=O)O)C(=O)N[C@@H](CCCNC(=N)N)C(=O)NCC(=O)N[C@@H](Cc3ccccc3)C(=O)N[C@@H](Cc3ccc(O)cc3)C(=O)N[C@@H](Cc3ccccc3)C(=O)N[C@@H](CC(N)=O)C(=O)N[C@@H](CCCCN)C(=O)N3CCC[C@H]3C(=O)N[C@H](C(N)=O)[C@@H](C)O)CSSC[C@@H](C(=O)N[C@@H](C)C(N)=O)NC(=O)[C@H](Cc3ccc(O)cc3)NC(=O)[C@H](CCSC)NC(=O)[C@H](CCC(=O)O)NC(=O)[C@H](CC(C)C)NC(=O)[C@H](CCCNC(=N)N)NC(=O)[C@H](CCCNC(=N)N)NC(=O)[C@H](CC(C)C)NC(=O)[C@H](CC(=O)O)NC2=O)NC1=O)C(C)C [IGF-1 A:In (1-17)-IGF-1 B (18-30)]
Insulin Receptor % insulin (in test) (insulin receptor): 14.0% and 11.3% and 20.1% | Ratio (insulin receptor): 22.6 | Insulin Receptor % native insulin activity (0.6 nM) (insulin receptor; relative to 0.6 nM): 21.7% and 22.5% and 24.2% | IGF-1 Receptor % IGF-1 (in test) (IGF-1 receptor): 0.9%
